Data as given in the NIST ThermoML archive (doi:10.1016/j.jct.2012.03.013).

Assays:
[1] = refractive index (Na D-line) (dimensionless); settings: 298.15 K; 101.33 kPa; Liquid; Standard Abbe refractometry
[2] = molar heat capacity at constant pressure; settings: Liquid, Acoustic Method
[3] = Liquid; for speed of sound: Pulse-echo method

OCCCCO [1,4-butanediol]
Settings | refractive index
[1] | 1.4447

Settings | molar heat capacity at constant pressure [J/K/mol] | speed of sound [m/s]
[2], 298.15 K, 10000 kPa | 202.7 | –
[2], 298.15 K, 20000 kPa | 202.4 | –
[2], 298.15 K, 30000 kPa | 202 | –
[2], 298.15 K, 40000 kPa | 201.7 | –
[2], 303.15 K, 10000 kPa | 205.5 | –
[2], 303.15 K, 20000 kPa | 205.1 | –
[2], 303.15 K, 30000 kPa | 204.7 | –
[2], 303.15 K, 40000 kPa | 204.4 | –
[2], 303.15 K, 50000 kPa | 204.1 | –
[2], 303.15 K, 60000 kPa | 203.8 | –
[2], 303.15 K, 70000 kPa | 203.5 | –
[2], 303.15 K, 80000 kPa | 203.2 | –
[2], 303.15 K, 90000 kPa | 202.9 | –
[2], 308.15 K, 10000 kPa | 208.3 | –
[2], 308.15 K, 20000 kPa | 207.9 | –
[2], 308.15 K, 30000 kPa | 207.6 | –
[2], 308.15 K, 40000 kPa | 207.2 | –
[2], 308.15 K, 50000 kPa | 206.9 | –
[2], 308.15 K, 60000 kPa | 206.6 | –
[2], 308.15 K, 70000 kPa | 206.3 | –
[2], 308.15 K, 80000 kPa | 206 | –
[2], 308.15 K, 90000 kPa | 205.7 | –
[2], 308.15 K, 100000 kPa | 205.4 | –
[2], 313.15 K, 10000 kPa | 211.2 | –
[2], 313.15 K, 20000 kPa | 210.8 | –
[2], 313.15 K, 30000 kPa | 210.4 | –
[2], 313.15 K, 40000 kPa | 210.1 | –
[2], 313.15 K, 50000 kPa | 209.7 | –
[2], 313.15 K, 60000 kPa | 209.4 | –
[2], 313.15 K, 70000 kPa | 209.1 | –
[2], 313.15 K, 80000 kPa | 208.8 | –
[2], 313.15 K, 90000 kPa | 208.5 | –
[2], 313.15 K, 100000 kPa | 208.2 | –
[2], 318.15 K, 10000 kPa | 214.2 | –
[2], 318.15 K, 20000 kPa | 213.8 | –
[2], 318.15 K, 30000 kPa | 213.4 | –
[2], 318.15 K, 40000 kPa | 213 | –
[2], 318.15 K, 50000 kPa | 212.7 | –
[2], 318.15 K, 60000 kPa | 212.3 | –
[2], 318.15 K, 70000 kPa | 212 | –
[2], 318.15 K, 80000 kPa | 211.7 | –
[2], 318.15 K, 90000 kPa | 211.4 | –
[2], 318.15 K, 100000 kPa | 211.1 | –
[3], 298.07 K, 15200 kPa | – | 1649.2
[3], 298.07 K, 30390 kPa | – | 1693.3
[3], 298.08 K, 45590 kPa | – | 1735.4
[3], 298.11 K, 100 kPa | – | 1602.1
[3], 298.15 K, 101.33 kPa | – | 1601.8
[3], 303.15 K, 101.33 kPa | – | 1589.9
[3], 303.15 K, 60790 kPa | – | 1763.6
[3], 303.15 K, 70920 kPa | – | 1789.3
[3], 303.15 K, 75990 kPa | – | 1801.9
[3], 303.15 K, 91180 kPa | – | 1837.8
[3], 303.16 K, 30390 kPa | – | 1682.4
[3], 303.16 K, 45590 kPa | – | 1724.1
[3], 303.16 K, 50660 kPa | – | 1738
[3], 303.17 K, 100 kPa | – | 1590.2
[3], 303.17 K, 15200 kPa | – | 1637.6
[3], 308.14 K, 15200 kPa | – | 1626.6
[3], 308.14 K, 30390 kPa | – | 1671.6
[3], 308.14 K, 45590 kPa | – | 1713.7
[3], 308.14 K, 75990 kPa | – | 1792
[3], 308.14 K, 91180 kPa | – | 1828.2
[3], 308.14 K, 101320 kPa | – | 1851.7
[3], 308.15 K, 100 kPa | – | 1578.4
[3], 308.15 K, 101.33 kPa | – | 1578.5
[3], 308.15 K, 60790 kPa | – | 1753.3
[3], 313.09 K, 15200 kPa | – | 1614.6
[3], 313.09 K, 30390 kPa | – | 1660.5
[3], 313.1 K, 45590 kPa | – | 1703
[3], 313.1 K, 60790 kPa | – | 1743.5
[3], 313.1 K, 75990 kPa | – | 1782
[3], 313.1 K, 91180 kPa | – | 1819
[3], 313.1 K, 101320 kPa | – | 1842.1
[3], 313.12 K, 100 kPa | – | 1567
[3], 313.15 K, 101.33 kPa | – | 1566.7
[3], 318.15 K, 101.33 kPa | – | 1555.2
[3], 318.17 K, 30390 kPa | – | 1649.8
[3], 318.17 K, 45590 kPa | – | 1692.6
[3], 318.17 K, 60790 kPa | – | 1733.4
[3], 318.17 K, 75990 kPa | – | 1772
[3], 318.18 K, 15200 kPa | – | 1603.3
[3], 318.18 K, 91180 kPa | – | 1809.4
[3], 318.18 K, 101320 kPa | – | 1832.7
[3], 318.2 K, 100 kPa | – | 1555.3

[3]
Settings | mass density [kg/m3]
293.15 K, 100 kPa, Acoustic method | 1015.74
293.15 K, 101.33 kPa, Vibrating tube method | 1015.74
298.15 K, 100 kPa, Acoustic method | 1012.78
298.15 K, 101.33 kPa, Vibrating tube method | 1012.78
298.15 K, 10000 kPa, Acoustic method | 1016.99
298.15 K, 20000 kPa, Acoustic method | 1021.1
298.15 K, 30000 kPa, Acoustic method | 1025.06
298.15 K, 40000 kPa, Acoustic method | 1028.89
303.14 K, 101.33 kPa, Vibrating tube method | 1009.78
303.15 K, 100 kPa, Acoustic method | 1009.77
303.15 K, 10000 kPa, Acoustic method | 1014.06
303.15 K, 20000 kPa, Acoustic method | 1018.23
303.15 K, 30000 kPa, Acoustic method | 1022.25
303.15 K, 40000 kPa, Acoustic method | 1026.13
303.15 K, 50000 kPa, Acoustic method | 1029.88
303.15 K, 60000 kPa, Acoustic method | 1033.51
303.15 K, 70000 kPa, Acoustic method | 1037.04
303.15 K, 80000 kPa, Acoustic method | 1040.47
303.15 K, 90000 kPa, Acoustic method | 1043.8
308.15 K, 100 kPa, Acoustic method | 1006.76
308.15 K, 101.33 kPa, Vibrating tube method | 1006.76
308.15 K, 10000 kPa, Acoustic method | 1011.12
308.15 K, 20000 kPa, Acoustic method | 1015.35
308.15 K, 30000 kPa, Acoustic method | 1019.42
308.15 K, 40000 kPa, Acoustic method | 1023.35
308.15 K, 50000 kPa, Acoustic method | 1027.15
308.15 K, 60000 kPa, Acoustic method | 1030.83
308.15 K, 70000 kPa, Acoustic method | 1034.41
308.15 K, 80000 kPa, Acoustic method | 1037.87
308.15 K, 90000 kPa, Acoustic method | 1041.25
308.15 K, 100000 kPa, Acoustic method | 1044.53
313.14 K, 101.33 kPa, Vibrating tube method | 1003.72
313.15 K, 100 kPa, Acoustic method | 1003.73
313.15 K, 10000 kPa, Acoustic method | 1008.15
313.15 K, 20000 kPa, Acoustic method | 1012.44
313.15 K, 30000 kPa, Acoustic method | 1016.57
313.15 K, 40000 kPa, Acoustic method | 1020.56
313.15 K, 50000 kPa, Acoustic method | 1024.41
313.15 K, 60000 kPa, Acoustic method | 1028.14
313.15 K, 70000 kPa, Acoustic method | 1031.76
313.15 K, 80000 kPa, Acoustic method | 1035.27
313.15 K, 90000 kPa, Acoustic method | 1038.68
313.15 K, 100000 kPa, Acoustic method | 1042
318.15 K, 100 kPa, Acoustic method | 1000.67
318.15 K, 101.33 kPa, Vibrating tube method | 1000.67
318.15 K, 10000 kPa, Acoustic method | 1005.17
318.15 K, 20000 kPa, Acoustic method | 1009.52
318.15 K, 30000 kPa, Acoustic method | 1013.71
318.15 K, 40000 kPa, Acoustic method | 1017.75
318.15 K, 50000 kPa, Acoustic method | 1021.65
318.15 K, 60000 kPa, Acoustic method | 1025.43
318.15 K, 70000 kPa, Acoustic method | 1029.09
318.15 K, 80000 kPa, Acoustic method | 1032.64
318.15 K, 90000 kPa, Acoustic method | 1036.09
318.15 K, 100000 kPa, Acoustic method | 1039.45
323.15 K, 101.33 kPa, Vibrating tube method | 997.61
328.15 K, 101.33 kPa, Vibrating tube method | 994.53
333.15 K, 101.33 kPa, Vibrating tube method | 991.44
338.15 K, 101.33 kPa, Vibrating tube method | 988.31
343.14 K, 101.33 kPa, Vibrating tube method | 985.17
348.15 K, 101.33 kPa, Vibrating tube method | 982.01
353.15 K, 101.33 kPa, Vibrating tube method | 978.82
